In one data set the target is Serine protease 1 (Homo sapiens, UniProt P07477). The data set can be described thus: Inhibition of human PRSS1 assessed as enzymatic cleavage of Benzoyl-GlyPro-Arg'Rh110-gammaGlu-OH by fluorescence analysis.
In data set [1] the target is Voltage-gated inwardly rectifying potassium channel KCNH2 (Homo sapiens, UniProt Q12809). The data set can be described thus: Displacement of [3H]-dofetilide from human ERG expressed in HEK293 cells measured after 90 mins by scintillation proximity assay. The data set is classed as cell-based.
Chain of Voltage-gated inwardly rectifying potassium channel KCNH2 (Q12809 whole entry): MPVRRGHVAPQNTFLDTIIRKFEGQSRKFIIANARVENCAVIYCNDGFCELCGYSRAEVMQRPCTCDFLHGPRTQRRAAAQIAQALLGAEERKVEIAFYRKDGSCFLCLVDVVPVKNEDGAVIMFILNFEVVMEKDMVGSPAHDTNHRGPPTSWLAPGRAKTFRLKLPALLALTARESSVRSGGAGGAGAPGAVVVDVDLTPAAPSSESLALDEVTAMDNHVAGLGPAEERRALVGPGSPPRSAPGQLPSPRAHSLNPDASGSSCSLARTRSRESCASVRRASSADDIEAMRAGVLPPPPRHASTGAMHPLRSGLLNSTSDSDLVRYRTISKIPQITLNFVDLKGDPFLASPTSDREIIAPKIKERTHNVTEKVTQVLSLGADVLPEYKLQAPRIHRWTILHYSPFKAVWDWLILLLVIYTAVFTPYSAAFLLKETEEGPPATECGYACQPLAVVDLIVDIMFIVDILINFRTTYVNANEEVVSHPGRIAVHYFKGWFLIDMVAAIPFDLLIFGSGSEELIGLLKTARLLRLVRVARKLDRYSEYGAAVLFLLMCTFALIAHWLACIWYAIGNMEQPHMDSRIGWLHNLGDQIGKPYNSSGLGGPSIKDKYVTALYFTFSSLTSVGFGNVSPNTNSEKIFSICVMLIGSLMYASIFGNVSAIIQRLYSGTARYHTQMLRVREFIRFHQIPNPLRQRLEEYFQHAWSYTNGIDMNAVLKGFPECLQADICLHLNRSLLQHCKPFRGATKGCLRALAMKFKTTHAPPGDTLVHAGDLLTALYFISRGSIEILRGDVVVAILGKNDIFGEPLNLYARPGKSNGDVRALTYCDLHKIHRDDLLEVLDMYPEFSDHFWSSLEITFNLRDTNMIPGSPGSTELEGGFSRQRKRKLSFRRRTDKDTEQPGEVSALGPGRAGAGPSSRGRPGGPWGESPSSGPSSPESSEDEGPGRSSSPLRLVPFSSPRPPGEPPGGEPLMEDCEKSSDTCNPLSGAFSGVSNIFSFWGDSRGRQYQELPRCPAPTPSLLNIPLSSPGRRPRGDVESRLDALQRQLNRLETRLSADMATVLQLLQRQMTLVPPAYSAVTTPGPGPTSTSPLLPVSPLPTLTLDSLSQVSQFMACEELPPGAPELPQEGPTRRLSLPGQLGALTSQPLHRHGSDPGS
A short description of data set [2]: Dissociation constant, pKa of the compound. Format: physicochemical.
Another data set addresses Prothrombin (Homo sapiens, UniProt P00734). Nature of the data set: Inhibition of human thrombin.
In a further data set the target is Chymotrypsin (Homo sapiens, UniProt Q99895+P17538+P40313+Q6GPI1). Nature of the data set: Inhibition of human chymotrypsin. Format: protein assay.
The next data set concerns the target Coagulation factor X (Homo sapiens, UniProt P00742). The data set can be described thus: Inhibition of human f10a.
Another data set has as its target T1, Neutrophil elastase (Homo sapiens, UniProt P08246).
T1 sequence (P08246 whole entry): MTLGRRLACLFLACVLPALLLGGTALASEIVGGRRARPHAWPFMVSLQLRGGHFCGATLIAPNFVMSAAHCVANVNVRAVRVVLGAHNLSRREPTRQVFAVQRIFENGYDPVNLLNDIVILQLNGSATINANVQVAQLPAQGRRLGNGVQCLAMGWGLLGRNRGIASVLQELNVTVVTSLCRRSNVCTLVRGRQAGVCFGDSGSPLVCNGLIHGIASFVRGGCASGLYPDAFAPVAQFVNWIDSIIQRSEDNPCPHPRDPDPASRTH
The data set can be described thus: Inhibition of human neutrophil elastase.

Data set [3] is described as follows: Lipophilicity, log P of the compound. Conditions: octanol/water. Format: physicochemical.
Data set [4] is described as follows: Solubility of the compound at pH 6.8. The data set is classed as physicochemical. Conditions: buffer.
The nature of data set [5]: Clearance in Sprague-Dawley rat at 1 mg/kg, iv. The data set is classed as ADME, organism-based. Conditions: in vivo.
Data set [6] can be described thus: AUC (0 to 24 hrs) in Sprague-Dawley rat at 1 mg/kg, iv. The data set is classed as ADME, organism-based. Further details: time < 24 hr, dose 1 mg/kg, route intravenous. Conditions: in vivo.

Chain of Serine protease 1 (P07477 whole entry): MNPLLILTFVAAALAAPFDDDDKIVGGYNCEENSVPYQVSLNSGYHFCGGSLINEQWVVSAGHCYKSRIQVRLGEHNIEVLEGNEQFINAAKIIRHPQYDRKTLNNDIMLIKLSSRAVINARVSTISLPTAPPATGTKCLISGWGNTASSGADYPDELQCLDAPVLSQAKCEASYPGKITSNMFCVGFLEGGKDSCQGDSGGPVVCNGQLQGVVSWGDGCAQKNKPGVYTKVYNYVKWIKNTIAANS
Chain of Coagulation factor X (P00742 41-179 limits assumed): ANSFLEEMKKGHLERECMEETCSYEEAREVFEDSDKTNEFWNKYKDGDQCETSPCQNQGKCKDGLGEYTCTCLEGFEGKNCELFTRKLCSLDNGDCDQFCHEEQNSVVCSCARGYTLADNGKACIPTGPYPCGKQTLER
Chain of Coagulation factor X (P00742 235-488 limits assumed): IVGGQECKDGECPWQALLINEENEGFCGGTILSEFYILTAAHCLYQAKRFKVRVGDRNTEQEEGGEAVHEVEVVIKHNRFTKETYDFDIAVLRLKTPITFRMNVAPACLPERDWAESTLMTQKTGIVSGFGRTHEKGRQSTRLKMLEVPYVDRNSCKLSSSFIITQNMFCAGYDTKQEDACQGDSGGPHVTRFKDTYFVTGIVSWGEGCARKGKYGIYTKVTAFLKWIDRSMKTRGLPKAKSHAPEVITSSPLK

Regarding `CNC(=O)[C@@H]1C[C@H](N2CCc3c(cccc3OCCc3ccccc3)C2)CN1C(=O)c1ccc(CN)c(OC)c1`, the IC50 on Serine protease 1 is 0.003 µM; in data set [1], 4 µM.

The compound `NCc1ccc(C(=O)N2C[C@@H](n3cc(C4CC4)nn3)C[C@H]2C(=O)NCC(c2ccccc2)c2ccccc2)cc1F` gave a pKa in [2] of 6.2. For the same compound, at Serine protease 1, the IC50 was 31 µM.

With `COc1cc(C(=O)N2C[C@@H](n3cc(C4CC4)nn3)C[C@H]2C(=O)N[C@H]2CCCC[C@@H]2c2ccccc2)ccc1CN`, the half-maximal inhibitory concentration (IC50) against Prothrombin is 54 µM; against Chymotrypsin, more than 100 µM; against Coagulation factor X, 72 µM; at Serine protease 1 it was 0.019 µM; at Neutrophil elastase it was more than 100 µM.

On to `CNC(=O)[C@@H]1C[C@H](N2CCc3c(ncnc3OCCc3ccccc3)C2)CN1C(=O)c1ccc(CN)c(OC)c1`, for which the IC50 on Serine protease 1 is 0.005 µM; in [1], more than 30 µM.

Turning to `NCc1ccc(C(=O)N2C[C@@H](n3cc(C4CC4)nn3)C[C@H]2C(=O)NCC(c2ccccc2)c2ccccc2)cc1`, the IC50 is 94 µM on Prothrombin; more than 100 µM against Chymotrypsin; 71 µM against Coagulation factor X; 0.11 µM at Serine protease 1; 0.5 µM in [1]; more than 100 µM on Neutrophil elastase. Also, the pKa in data set [2] stood at 8.5. In addition, the logP in data set [3] is 3. Moreover, the solubility in [4] was more than 1000 µM.

Take `CNC(=O)[C@@H]1C[C@H](n2cc(C3CC3)nn2)CN1C(=O)c1ccc(CN)c(OC)c1`: the IC50 on Serine protease 1 was 2.1 µM; in data set [1] it was more than 30 µM.

`COc1cc(C(=O)N2C[C@@H](n3cc(C4CC4)nn3)C[C@H]2C(=O)N[C@@H]2C[C@H]2c2ccccc2)ccc1CN`: the IC50 was 0.11 µM on Serine protease 1 and 22 µM in data set [1].

`CNC(=O)[C@@H]1C[C@H](N2CCc3c(cccc3OC)C2)CN1C(=O)c1ccc(CN)c(OC)c1`: the results for the half-inhibitory concentration (IC50) (at Serine protease 1; in data set [1]) were 0.1 µM and more than 30 µM, respectively.

On to `COc1cc(C(=O)N2C[C@@H](n3cc(C4CC4)nn3)C[C@H]2C(=O)N2CC[C@H](c3ccccc3)C2)ccc1CN`, for which the IC50 is 0.22 µM on Serine protease 1 and 14 µM in data set [1].

As to `CNC(=O)[C@@H]1C[C@H](N2CCc3c(ncnc3OCCC3CC3)C2)CN1C(=O)c1ccc(CN)c(OC)c1`, the IC50 at Serine protease 1 is 0.006 µM; in data set [1], more than 30 µM.

As for `COc1cc(C(=O)N2C[C@@H](n3cc(C4CC4)nn3)C[C@H]2C(=O)NCC(c2ccccc2)c2ccccc2)ccc1CN`, the IC50 is 27 µM against Prothrombin; 15 µM on Chymotrypsin; 31 µM against Coagulation factor X; 0.011 to 0.014 µM on Serine protease 1; 2.4 µM in data set [1]; 55 µM at Neutrophil elastase. In addition, the pKa in data set [2] came out at 9.2. The compound also yielded a clearance in data set [5] of 33 mL/min/kg. This compound also came in with an exposure AUC(0-t) at 24 h in data set [6] of 1.03 µM·h. The compound also returned a solubility in [4] of more than 1000 µM.

On to `CNC(=O)[C@@H]1C[C@H](N2CCc3ccccc3C2)CN1C(=O)c1ccc(CN)c(OC)c1`, for which the IC50 on Serine protease 1 was 0.49 µM; in data set [1], more than 30 µM.

For `CNC(=O)[C@@H]1C[C@H](N2CCc3c(cccc3OCCC3CC3)C2)CN1C(=O)c1ccc(CN)c(OC)c1`, the values for the IC50 (at Serine protease 1; in data set [1]) were 0.002 µM and 11 µM, respectively.

Turning to `COc1cc(C(=O)N2C[C@@H](n3cc(C4CC4)nn3)C[C@H]2C(=O)N[C@H]2C[C@@H]2c2ccccc2)ccc1CN`, on Serine protease 1, the 50% inhibitory concentration (IC50) worked out at 0.96 µM.

Take `CNC(=O)[C@@H]1C[C@H](N2CCc3c(cccc3OCCOC)C2)CN1C(=O)c1ccc(CN)c(OC)c1`: the IC50 is more than 100 µM on Prothrombin; more than 100 µM against Chymotrypsin; more than 100 µM at Coagulation factor X; 0.008 µM at Serine protease 1; more than 30 µM in [1]; more than 100 µM against Neutrophil elastase. In data set [5], this compound gave a clearance of 9 mL/min/kg. The compound also showed an AUC(0-t) at 24 h in data set [6] of 3.88 µM·h. In addition, the solubility in [4] is more than 1000 µM.

Take `COc1cc(C(=O)N2C[C@@H](n3cc(C4CC4)nn3)C[C@H]2C(=O)NCCc2ccccc2)ccc1CN`: the IC50 on Serine protease 1 was found to be 0.16 µM.

For the compound `COc1cc(C(=O)N2C[C@@H](n3cc(C4CC4)nn3)C[C@H]2C(=O)N2CC[C@@H](c3ccccc3)C2)ccc1CN`, at Serine protease 1, the IC50 was determined as 0.33 µM.

In data set [2], `Cc1cc(C(=O)N2C[C@@H](n3cc(C4CC4)nn3)C[C@H]2C(=O)NCC(c2ccccc2)c2ccccc2)ccc1CN` registered a pKa of 8.7. For the same compound, the IC50 at Serine protease 1 was 0.11 µM.
